According to paper PMC8750527 (Cancers, 2021):
Where two headings read alike, the source gives them in different places.

Columns and labels:
C8-D1A = assay: MTT assay, 48 h exposure, murine primary astrocytes; assay type: cell-based
Protocol: (§1) HDF (3000 cells), C8-D1A (5000 cells), D458 (5000 cells), DAOY (2000 cells), HD-MB03 (10,000 cells) and CHLA-01-Med (10,000 cells) were seeded at an approximate confluency of 50% in 96-well plates (Corning Inc., Corning, NY, USA) in 100 µL medium per well. A range from 50 nM to 150 µM of every drug was tested. The effects of the antiangiogenic compounds were measured using a 3-[4,5-dimethylthiazol-2yl]-diphenyltetrazolium bromide (MTT) colorimetric assay (Sigma, Lyon, France) according to the manufacturer’s instructions. When applicable, IC50 was calculated using the nonlinear regression method of the Prism 5 software (Graphpad Software Inc., San Diego, CA, USA). […] An MTT assay was conducted as described above to assess the fitness of the cells.

MB cells = assay: Cell viability, propidium iodine incorporation, MB cells; assay type: cell-based, human; details: 48 h, 5 µM
Protocol: (§2) Cell viability assays were conducted using a propidium iodine incorporation technique with an ADAM-sHIT automated cell counter (NanoEnTek, Gyeonggi-do, Korea) according to the manufacturer’s protocol.

C8-D1A astrocytes = assay: Cell viability, propidium iodine incorporation, C8-D1A; assay type: cell-based, murine; details: 48 h; axitinib, cabozantinib, sunitinib 5 µM, etoposide 1 µM
Protocol: as §2

HD-MB03 = assay: MTT assay, 48 h exposure, HD-MB03 MB cells; assay type: cell-based, human; details: for IC50: MTT, 48 h exposure, mean ± SEM
Protocol: as §1

CHLA-01-Med = assay: MTT assay, 48 h exposure, CHLA-01-Med MB cells; assay type: cell-based, human
Protocol: as §1

DAOY = assay: MTT assay, 48 h exposure, DAOY MB cells; assay type: cell-based, human; details: for IC50: MTT, 48 h exposure, mean ± SEM
Protocol: as §1

HDF = assay: MTT assay, 48 h exposure, human dermal fibroblasts; assay type: cell-based
Protocol: as §1

D458 = assay: MTT assay, 48 h exposure, D458 MB cells; assay type: cell-based, human; details: for IC50: MTT, 48 h exposure, mean ± SEM
Protocol: as §1

SMILES: CCN(CC)CCNC(=O)c1c(C)[nH]c(/C=C2\C(=O)Nc3ccc(F)cc32)c1C [Sunitinib, sunitinib]
- IC50 (C8-D1A; Mus musculus, C8-D1A, Table 1, normal cells, mean ± SEM, read-out: IC50 (µM) C8D1A): 5.7 ± 2.2 µM
- viability of MB cells (MB cells): decreased the viability of most MB cells
- viability of C8-D1A normal cells (C8-D1A astrocytes): strongly induced the death
- IC50 (HD-MB03; Homo sapiens, HD-MB03, Table 1): 4.6 ± 0.3 µM
- Specificity Index relative to C8D1A, HDMB (HD-MB03; ratio IC50 C8-D1A / IC50 HD-MB03): 1.24
- Specificity Index relative to HDF, HD-MB03 (HD-MB03; ratio IC50 HDF / IC50 HD-MB03): 0.39
- IC50 (CHLA-01-Med; Homo sapiens, Table 1, MTT, 48 h exposure, mean ± SEM): 7.5 ± 0.8 µM
- Specificity Index relative to C8D1A, CHLA-01-Med (CHLA-01-Med; ratio IC50 C8-D1A / IC50 CHLA-01-Med): 0.76
- Specificity Index relative to HDF, CHLA-01-Med (CHLA-01-Med; ratio IC50 HDF / IC50 CHLA-01-Med): 0.24
- IC50 (DAOY; Homo sapiens, Daoy, Table 1): 7.9 ± 5.5 µM
- Specificity Index relative to C8D1A, DAOY (DAOY; ratio IC50 C8-D1A / IC50 DAOY): 0.72
- Specificity Index relative to HDF, DAOY (DAOY; ratio IC50 HDF / IC50 DAOY): 0.23
- IC50 (HDF; Homo sapiens, HDF, Table 1, normal cells, mean ± SEM): 1.8 ± 0.04 µM
- IC50 (D458; Homo sapiens, Table 1): 4.2 ± 0.3 µM
- Specificity Index relative to C8D1A, D458 (D458; ratio IC50 C8-D1A / IC50 D458): 1.36
- Specificity Index relative to HDF, D458 (D458; ratio IC50 HDF / IC50 D458): 0.43

SMILES: N.N.O=C([O-])C1(C(=O)[O-])CCC1.[Pt+2] [Carboplatin, carboplatin]
- IC50 (C8-D1A; Table 3, mean ± SEM): > 20 µM
- IC50 (HD-MB03; Table 3): > 20 µM
- IC50 (DAOY; Table 3): > 20 µM
- IC50 (HDF; Table 3, mean ± SEM): > 20 µM
- IC50 (D458; Table 3): > 20 µM
